Test results taken from patent US20040076968A1, “Method for detecting pre-disposition to hepatotoxicity” (priority 2000, published 2004).

Assays:
[1] = Clinical trials for tolcapone in patients with Parkinson's disease: liver transaminases; assay type: in vivo, human; settings: rare circumstances
Text: There was therefore a desire to establish whether there is a correlation between the occurrence of such liver abnormalities, which are indicators of liver toxicity and certain genetic pre-dispositions.

[2] = system: UGT1A6 gene; experiment: Association of UGT1A6 polymorphisms with liver function abnormality in tolcapone-treated patients (case-control genotyping); assay type: in vivo, human
Protocol: Disease severity had already been controlled for by the original study inclusion criteria.
In the KTC format, the generation of double-stranded amplification product is monitored using a DNA intercalating dye and a thermal cycler which has a fluorescence-detecting CCD camera attached (PE-Bipsystems GeneAmp 5700 Sequence Detection System). Fluorescence in each well of the PCR amplification plate is measured at each cycle of annealing and denaturation. The cycle at which the relative fluorescence reached a threshold of 0.5 using the SDS sofiware from PE-Biosystems was defined as the Ct.
The amplification reactions were designed to be allele-specific, so that the amplification reaction was positive if the polymorphism was present and the amplification reaction was negative if the polymorphism was absent. For each bi-allelic polymorphism, one well of the amplification plate was set up to be specific for allele 1 and a second well was set up to be specific for allele 2. For each polymorphism to be detected, three primers were designed—two allele-specific primers and one common primer (Table 3). Reactions for allele 1 contained allele 1-specific primer and the common primer and reactions for allele 2 contained allele 2-specific primer and the common primer.
The Ct of each amplification reaction was determined and the difference between the Ct for allele 1 and allele 2 (delta Ct) was, used as the assay result. Samples with delta Cts between −3.0 and 3.0 were considered heterozygous (A1/A2). Samples with delta Cts below −3.0 were considered homozygous for A1 (A1/A1); samples with delta Cts above 3.0 were considered homozygous for A2 (A2/A2).
For all other single nucleotide polymorphisms (SNPs) discovery and genotyping was done by double-stranded DNA sequencing using an ABI capillary sequencer and Big Dye chemistry (ABI). The primers used to amplify all exons are shown below and were also used as sequencing primers. Publicly available genomic sequences were used as references for primer design. All polymorphisms were targeted with these pairs-of-primer sets:
The patient samples were divided into two groups.
For each genotype, the following analyses were performed:
a) Analysis of the entire genotype: patients were classified according to the following three categories: homozygous 1/1 (two copies of allele 1 and no copies of allele 2), heterozygous 1/2 (one copy of allele 1 and one copy of allele 2) or homozygous 2/2 (no copies of allele 1 and two copies of allele 2). Analysis was conducted to assess whether there were differences in the proportion of case patients in each of these groups, compared with the proportion of control patients. The Cochran-Maentel-Hanszel (CMH) test was applied to the data presented in a 2-by-3 table (the two columns indicating presence or absence of liver function abnormality and the three rows indicating the three categories of the genotype).
b) Analysis of alleles: the presence of allele 1 or 2 in case patients was compared to the presence of the respective allele in the control patients.
c) Analysis of allele counts: this analysis was conducted to compare the distribution of the alleles in patients with liver function abnormality to that of patients without abnormality. The total number of copies of allele 1 among patients with liver function abnormality was compared with the total number of copies of allele 2 among these case patients.

[3] = human subjects; cited from earlier work

n (%) of patients ([2]; UGT1A6_232 Ser7Ala, Allele G Absent, Liver Function Abnormality Absent): 112 (42.1%) | n (%) of patients ([2]; UGT1A6_232 Ser7Ala, Allele G Absent, Liver Function Abnormality Present): 40 (30.5%) | n (%) of patients ([2]; UGT1A6_232 Ser7Ala, Allele G Present, Liver Function Abnormality Absent): 154 (57.9%) | n (%) of patients ([2]; UGT1A6_232 Ser7Ala, Allele G Present, Liver Function Abnormality Present): 91 (69.5%) | n (%) of patients ([2]; UGT1A6_232 Ser7Ala, Allele T Absent, Liver Function Abnormality Absent): 31 (11.7%) | n (%) of patients ([2]; UGT1A6_232 Ser7Ala, Allele T Absent, Liver Function Abnormality Present): 28 (21.4%) | n (%) of patients ([2]; UGT1A6_232 Ser7Ala, Allele T Present, Liver Function Abnormality Absent): 235 (88.3%) | n (%) of patients ([2]; UGT1A6_232 Ser7Ala, Allele T Present, Liver Function Abnormality Present): 103 (78.6%) | n (%) of allele copies ([2]; UGT1A6_232 Ser7Ala, Count Allele G, Liver Function Abnormality Absent): 185 (34.8%) | n (%) of allele copies ([2]; UGT1A6_232 Ser7Ala, Count Allele G, Liver Function Abnormality Present): 119 (45.4%) | n (%) of allele copies ([2]; UGT1A6_232 Ser7Ala, Count Allele T, Liver Function Abnormality Absent): 347 (65.2%) | n (%) of allele copies ([2]; UGT1A6_232 Ser7Ala, Count Allele T, Liver Function Abnormality Present): 143 (54.6%) | n (%) of patients ([2]; UGT1A6_232 Ser7Ala, Genotype Heterozygous T/G, Liver Function Abnormality Absent): 123 (46.2%) | n (%) of patients ([2]; UGT1A6_232 Ser7Ala, Genotype Heterozygous T/G, Liver Function Abnormality Present): 63 (48.1%) | n (%) of patients ([2]; UGT1A6_232 Ser7Ala, Genotype Homozygous G/G, Liver Function Abnormality Absent): 31 (11.7%) | n (%) of patients ([2]; UGT1A6_232 Ser7Ala, Genotype Homozygous G/G, Liver Function Abnormality Present): 28 (21.4%) | n (%) of patients ([2]; UGT1A6_232 Ser7Ala, Genotype Homozygous T/T, Liver Function Abnormality Absent): 112 (42.1%) | n (%) of patients ([2]; UGT1A6_232 Ser7Ala, Genotype Homozygous T/T, Liver Function Abnormality Present): 40 (30.5%) | n (%) of patients ([2]; UGT1A6_528 A/G, Allele A Absent, Liver Function Abnormality Absent): 22 (8.3%) | n (%) of patients ([2]; UGT1A6_528 A/G, Allele A Absent, Liver Function Abnormality Present): 26 (20.0%) | n (%) of patients ([2]; UGT1A6_528 A/G, Allele A Present, Liver Function Abnormality Absent): 243 (91.7%) | n (%) of patients ([2]; UGT1A6_528 A/G, Allele A Present, Liver Function Abnormality Present): 104 (80.0%) | n (%) of patients ([2]; UGT1A6_528 A/G, Allele G Absent, Liver Function Abnormality Absent): 129 (48.7%) | n (%) of patients ([2]; UGT1A6_528 A/G, Allele G Absent, Liver Function Abnormality Present): 44 (33.8%) | n (%) of patients ([2]; UGT1A6_528 A/G, Allele G Present, Liver Function Abnormality Absent): 136 (51.3%) | n (%) of patients ([2]; UGT1A6_528 A/G, Allele G Present, Liver Function Abnormality Present): 86 (66.2%) | n (%) of allele copies ([2]; UGT1A6_528 A/G, Count Allele A, Liver Function Abnormality Absent): 372 (70.2%) | n (%) of allele copies ([2]; UGT1A6_528 A/G, Count Allele A, Liver Function Abnormality Present): 148 (56.9%) | n (%) of allele copies ([2]; UGT1A6_528 A/G, Count Allele G, Liver Function Abnormality Absent): 158 (29.8%) | n (%) of allele copies ([2]; UGT1A6_528 A/G, Count Allele G, Liver Function Abnormality Present): 112 (43.1%) | n (%) of patients ([2]; UGT1A6_528 A/G, Genotype Heterozygous A/G, Liver Function Abnormality Absent): 114 (43.0%) | n (%) of patients ([2]; UGT1A6_528 A/G, Genotype Heterozygous A/G, Liver Function Abnormality Present): 60 (46.2%) | n (%) of patients ([2]; UGT1A6_528 A/G, Genotype Homozygous A/A, Liver Function Abnormality Absent): 129 (48.7%) | n (%) of patients ([2]; UGT1A6_528 A/G, Genotype Homozygous A/A, Liver Function Abnormality Present): 44 (33.8%) | n (%) of patients ([2]; UGT1A6_528 A/G, Genotype Homozygous G/G, Liver Function Abnormality Absent): 22 (8.3%) | n (%) of patients ([2]; UGT1A6_528 A/G, Genotype Homozygous G/G, Liver Function Abnormality Present): 26 (20.0%) | n (%) of patients ([2]; UGT1A6_754 Thr181Ala, Allele Ala Absent, Liver Function Abnormality Absent): 144 (52.6%) | n (%) of patients ([2]; UGT1A6_754 Thr181Ala, Allele Ala Absent, Liver Function Abnormality Present): 51 (37.8%) | n (%) of patients ([2]; UGT1A6_754 Thr181Ala, Allele Ala Present, Liver Function Abnormality Absent): 130 (47.4%) | n (%) of patients ([2]; UGT1A6_754 Thr181Ala, Allele Ala Present, Liver Function Abnormality Present): 84 (62.2%) | n (%) of patients ([2]; UGT1A6_754 Thr181Ala, Allele Thr Absent, Liver Function Abnormality Absent): 22 (8.0%) | n (%) of patients ([2]; UGT1A6_754 Thr181Ala, Allele Thr Absent, Liver Function Abnormality Present): 25 (18.5%) | n (%) of patients ([2]; UGT1A6_754 Thr181Ala, Allele Thr Present, Liver Function Abnormality Absent): 252 (92.0%) | n (%) of patients ([2]; UGT1A6_754 Thr181Ala, Allele Thr Present, Liver Function Abnormality Present): 110 (81.5%) | n (%) of allele copies ([2]; UGT1A6_754 Thr181Ala, Count Allele Ala, Liver Function Abnormality Absent): 152 (27.7%) | n (%) of allele copies ([2]; UGT1A6_754 Thr181Ala, Count Allele Ala, Liver Function Abnormality Present): 109 (40.4%) | n (%) of allele copies ([2]; UGT1A6_754 Thr181Ala, Count Allele Thr, Liver Function Abnormality Absent): 396 (72.3%) | n (%) of allele copies ([2]; UGT1A6_754 Thr181Ala, Count Allele Thr, Liver Function Abnormality Present): 161 (59.6%) | n (%) of patients ([2]; UGT1A6_754 Thr181Ala, Genotype Heterozygous Thr/Ala, Liver Function Abnormality Absent): 108 (39.4%) | n (%) of patients ([2]; UGT1A6_754 Thr181Ala, Genotype Heterozygous Thr/Ala, Liver Function Abnormality Present): 59 (43.7%) | n (%) of patients ([2]; UGT1A6_754 Thr181Ala, Genotype Homozygous Ala/Ala, Liver Function Abnormality Absent): 22 (8.8%) | n (%) of patients ([2]; UGT1A6_754 Thr181Ala, Genotype Homozygous Ala/Ala, Liver Function Abnormality Present): 25 (18.5%) | n (%) of patients ([2]; UGT1A6_754 Thr181Ala, Genotype Homozygous Thr/Thr, Liver Function Abnormality Absent): 144 (52.6%) | n (%) of patients ([2]; UGT1A6_754 Thr181Ala, Genotype Homozygous Thr/Thr, Liver Function Abnormality Present): 51 (37.8%) | n (%) of patients ([2]; UGT1A6_765 Arg184Ser, Allele Arg Absent, Liver Function Abnormality Absent): 24 (8.8%) | n (%) of patients ([2]; UGT1A6_765 Arg184Ser, Allele Arg Absent, Liver Function Abnormality Present): 26 (19.3%) | n (%) of patients ([2]; UGT1A6_765 Arg184Ser, Allele Arg Present, Liver Function Abnormality Absent): 250 (91.2%) | n (%) of patients ([2]; UGT1A6_765 Arg184Ser, Allele Arg Present, Liver Function Abnormality Present): 109 (80.7%) | n (%) of patients ([2]; UGT1A6_765 Arg184Ser, Allele Ser Absent, Liver Function Abnormality Absent): 128 (46.7%) | n (%) of patients ([2]; UGT1A6_765 Arg184Ser, Allele Ser Absent, Liver Function Abnormality Present): 45 (33.3%) | n (%) of patients ([2]; UGT1A6_765 Arg184Ser, Allele Ser Present, Liver Function Abnormality Absent): 146 (53.3%) | n (%) of patients ([2]; UGT1A6_765 Arg184Ser, Allele Ser Present, Liver Function Abnormality Present): 90 (66.7%) | n (%) of allele copies ([2]; UGT1A6_765 Arg184Ser, Count Allele Arg, Liver Function Abnormality Absent): 378 (69.0%) | n (%) of allele copies ([2]; UGT1A6_765 Arg184Ser, Count Allele Arg, Liver Function Abnormality Present): 154 (57.0%) | n (%) of allele copies ([2]; UGT1A6_765 Arg184Ser, Count Allele Ser, Liver Function Abnormality Absent): 170 (31.0%) | n (%) of allele copies ([2]; UGT1A6_765 Arg184Ser, Count Allele Ser, Liver Function Abnormality Present): 116 (43.0%) | n (%) of patients ([2]; UGT1A6_765 Arg184Ser, Genotype Heterozygous Arg/Ser, Liver Function Abnormality Absent): 122 (44.5%) | n (%) of patients ([2]; UGT1A6_765 Arg184Ser, Genotype Heterozygous Arg/Ser, Liver Function Abnormality Present): 64 (47.4%) | n (%) of patients ([2]; UGT1A6_765 Arg184Ser, Genotype Homozygous Arg/Arg, Liver Function Abnormality Absent): 128 (46.7%) | n (%) of patients ([2]; UGT1A6_765 Arg184Ser, Genotype Homozygous Arg/Arg, Liver Function Abnormality Present): 45 (33.3%) | n (%) of patients ([2]; UGT1A6_765 Arg184Ser, Genotype Homozygous Ser/Ser, Liver Function Abnormality Absent): 24 (8.8%) | n (%) of patients ([2]; UGT1A6_765 Arg184Ser, Genotype Homozygous Ser/Ser, Liver Function Abnormality Present): 26 (19.3%)
Compound: Cc1ccc(C(=O)c2cc(O)c(O)c([N+](=O)[O-])c2)cc1 [tolcapone]
effect on liver transaminase activity [1]: reversible asymptomatic increase in liver transaminase activity | main pathway of elimination from the body [3]: glucuronidation
